Reference: patent publication US11420947B2, “(S)-n-hydroxy-2-(2-(4-methoxyphenyl)butanamido)thiazole-5-carboxamide and pharmaceutically acceptable salts thereof” (TRANSLATIONAL DRUG DEVELOPMENT, LLC, priority 2018, dated 2022)

Tests used:
Test in all cases: CellTiter-Glo cell viability assay
Type in all cases: cell-based
NCI-H226 = details: Homo sapiens; NCI-H226, LUNG, Mesothelioma, 72 hours
Procedure: (§1) Cell viability in the presence of varying concentrations of the above listed compounds at different time points was used to assess cytotoxicity and the effect of the compounds on cell proliferation.
(§2) Cell viability was measured by the CellTiter-Glo® cell viability assay from Promega (Madison, Wis.). The CellTiter-Glo® Luminescent Cell Viability Assay is a homogeneous method to determine the number of viable cells in culture based on quantitation of the ATP present, which signals the presence of metabolically active cells. Following treatment, CellTiter-Glo® is added to treatment wells and incubated at 37° C. luminescence values were measured at using a Molecular Devices Spectramax microplate reader
(§3) Cells were grown to 70% confluency, trypsinized, counted, and seeded in 96 well flat-bottom plates at a final concentration of 2.5×10^3-5×10^3 cells/well (Day 0). Cells were allowed to incubate in growth media for 24 hours. Treatment with the test agents or standard agents began on Day 1 and continued for 72 hours. At the 72-hour timepoint, treatment containing media was removed. Viable cell numbers are quantified by the CellTiter-Glo® cell viability assay as described above. Results from these studies were used to calculate an IC50 value (concentration of drug that inhibits cell growth by 50 percent of control) for each compound.
(§4) For single agent and combination studies, data from each experiment was collected and expressed as % Cell Growth using the following calculation: % Cell Growth=(ftest/fvehicle)×100
(§5) Where test is the fluorescence of the tested sample, and fvehicle is the fluorescence of the vehicle in which the drug is dissolved. Dose response graphs and IC50 values were generated using Prism 6 software (GraphPad) using the following equation: Y=(Top-Bottom)/(1+10^((logIC^50^-X)-HillSlope))

MOLM-13 = details: Homo sapiens; MOLM-13, HEMATOPIETIC, AML, 72 hours
Procedure: as §1, §2, §3, §4, §5

BT-20 = details: Homo sapiens; BT-20, BREAST, Carcinoma, 72 hours
Procedure: as §1, §2, §3, §4, §5

A549 = details: Homo sapiens; A549, LUNG, NSCLC, 72 hours
Procedure: as §1, §2, §3, §4, §5

ASPC-1 = details: Homo sapiens, ASPC1; ASPC-1, PANCREAS, Pancreatic, 72 hours
Procedure: as §1, §2, §3, §4, §5

G402 = details: Homo sapiens, G-402; G402, RENAL, Renal leiomyoblastoma, 72 hours
Procedure: as §1, §2, §3, §4, §5

MDA-MB-157 = details: Homo sapiens; MDA-MB-157, BREAST, Medullary Carcinoma, 72 hours
Procedure: as §1, §2, §3, §4, §5

DOHH-2 = details: Homo sapiens; DOHH-2, HEMATOPIETIC, Lymphoma, 72 hours
Procedure: as §1, §2, §3, §4, §5

Panc-1 = details: Homo sapiens; Panc-1, PANCREAS, Pancreatic, 72 hours
Procedure: as §1, §2, §3, §4, §5

NCI-H820 = details: NCI-H820, LUNG, NSCLC, 72 hours
Procedure: as §1, §2, §3, §4, §5

K562 = details: Homo sapiens; K562, HEMATOPIETIC, CML, 72 hours
Procedure: as §1, §2, §3, §4, §5

H1650 = details: Homo sapiens, NCI-H1650; H1650, LUNG, NSCLC, 72 hours
Procedure: as §1, §2, §3, §4, §5

H660 = details: NCI-H660; H660, PROSTATE, LN Met, 72 hours
Procedure: as §1, §2, §3, §4, §5

RXF-393 = details: Homo sapiens; RXF-393, RENAL, RCC, 72 hours
Procedure: as §1, §2, §3, §4, §5

MOLP-8 = details: Homo sapiens; MOLP-8, HEMATOPIETIC, MM, 72 hours
Procedure: as §1, §2, §3, §4, §5

FaDu = details: Homo sapiens; FaDu, H&N SQUAMOUS CELL, Pharynx, 72 hours
Procedure: as §1, §2, §3, §4, §5

SUM149PT = details: Homo sapiens; SUM149PT, BREAST, IBC, 72 hours
Procedure: as §1, §2, §3, §4, §5

MDA-MB-468 = details: Homo sapiens; MDA-MB-468, BREAST, TNBC, 72 hours
Procedure: as §1, §2, §3, §4, §5

KMM-1 = details: KMM-1, HEMATOPIETIC, MM, 72 hours
Procedure: as §1, §2, §3, §4, §5

BT474 = details: Homo sapiens, BT-474; BT474, BREAST, Ductal Carcinoma, 72 hours
Procedure: as §1, §2, §3, §4, §5

KMS-34 = details: KMS-34, HEMATOPIETIC, MM, 72 hours
Procedure: as §1, §2, §3, §4, §5

NCI-H1963 = details: Homo sapiens; NCI-H1963, LUNG, Carcinoma, 72 hours
Procedure: as §1, §2, §3, §4, §5

N87 = details: N87, GASTRIC, Carcinoma, 72 hours
Procedure: as §1, §2, §3, §4, §5

MM1.S = details: Homo sapiens; MM1.S, HEMATOPIETIC, MM, 72 hours
Procedure: as §1, §2, §3, §4, §5

Capan-2 = details: Homo sapiens; Capan-2, PANCREAS, Pancreatic, 72 hours
Procedure: as §1, §2, §3, §4, §5

**Q.** `CCC(C(=O)Nc1ncc(C(=O)NO)s1)c1ccc(OC)cc1` (racemic) [#1, N-hydroxy-2-(2-(4-methoxyphenyl)butanamido)thiazole-5-carboxamide] was tested. Which IC50 (NCI-H226) did it give?
**A.** The IC50 was 479 nM.

**Q.** And the IC50 (MOLM-13)?
**A.** Its IC50 is 62 nM.

**Q.** What about the IC50 (BT-20) of the same compound?
**A.** Its IC50 is 236 nM.

**Q.** And the IC50 (A549)?
**A.** The IC50 was 76 nM.

**Q.** What about the IC50 (ASPC-1) of the same compound?
**A.** The IC50 was 158 nM.

**Q.** What about the IC50 (G402) of the same compound?
**A.** The IC50 was 102 nM.

**Q.** And the IC50 (MDA-MB-157)?
**A.** The IC50 was 169 nM.

**Q.** What about the IC50 (DOHH-2) of the same compound?
**A.** The IC50 was 16 nM.

**Q.** What about the IC50 (Panc-1) of the same compound?
**A.** The IC50 was 631 nM.

**Q.** What about the IC50 (NCI-H820) of the same compound?
**A.** The IC50 was 85 nM.

**Q.** And the IC50 (K562)?
**A.** The IC50 was 145 nM.

**Q.** What about the IC50 (H1650) of the same compound?
**A.** Its IC50 is 363 nM.

**Q.** And the IC50 (H660)?
**A.** The IC50 was 158 nM.

**Q.** What about the IC50 (RXF-393) of the same compound?
**A.** The IC50 was 398 nM.

**Q.** What about the IC50 (MOLP-8) of the same compound?
**A.** Its IC50 is 13 nM.

**Q.** And the IC50 (FaDu)?
**A.** Its IC50 is 10 nM.

**Q.** And the IC50 (SUM149PT)?
**A.** The IC50 was 191 nM.

**Q.** What about the IC50 (MDA-MB-468) of the same compound?
**A.** Its IC50 is 68 nM.

**Q.** What about the IC50 (KMM-1) of the same compound?
**A.** Its IC50 is 20 nM.

**Q.** What about the IC50 (BT474) of the same compound?
**A.** The IC50 was 1000 nM.

**Q.** What about the IC50 (KMS-34) of the same compound?
**A.** Its IC50 is 15 nM.

**Q.** And the IC50 (NCI-H1963)?
**A.** The IC50 was 196 nM.

**Q.** And the IC50 (N87)?
**A.** Its IC50 is 120 nM.

**Q.** What about the IC50 (MM1.S) of the same compound?
**A.** The IC50 was 33 nM.

**Q.** What about the IC50 (Capan-2) of the same compound?
**A.** The IC50 was 363 nM.
